From patent US10688093B2, “Methods, compositions, and uses of novel Fyn kinase inhibitors” (priority 2015, dated 2020)

The compounds below were run against full-length recombinant human FYN A (Homo sapiens (Human), UniProt P06241) (assay: ADP-Glo Kinase Assay of FYN kinase inhibition). Conditions: primary screen, initial compounds.
Chain of full-length recombinant human FYN A (P06241 whole entry): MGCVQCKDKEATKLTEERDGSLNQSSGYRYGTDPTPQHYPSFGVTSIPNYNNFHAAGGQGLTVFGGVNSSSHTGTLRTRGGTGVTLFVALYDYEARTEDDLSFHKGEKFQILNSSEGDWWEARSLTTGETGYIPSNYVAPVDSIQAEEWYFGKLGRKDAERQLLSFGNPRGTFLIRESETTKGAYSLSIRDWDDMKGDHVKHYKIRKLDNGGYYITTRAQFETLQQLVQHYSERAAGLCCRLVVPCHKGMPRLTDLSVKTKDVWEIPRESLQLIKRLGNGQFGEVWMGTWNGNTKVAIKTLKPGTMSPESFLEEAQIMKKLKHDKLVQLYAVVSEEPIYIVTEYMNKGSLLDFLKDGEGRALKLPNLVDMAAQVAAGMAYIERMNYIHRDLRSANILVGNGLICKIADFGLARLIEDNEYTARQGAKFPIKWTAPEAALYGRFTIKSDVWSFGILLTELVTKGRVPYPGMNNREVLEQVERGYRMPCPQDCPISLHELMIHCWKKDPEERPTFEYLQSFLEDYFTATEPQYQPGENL
Type: biochemical
Outline: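 GST-tagged full-length FYN A (baculovirus, Sf9) at 3 pg preincubated 30 min RT with compound (10-point 3-fold series from 10 μM) in Tris pH 7.5/MgCl2 buffer. 12-mer tyrosine peptide plus 12.5 pmol ATP added, 90 min RT; ADP measured by ADP-Glo luminescence, IC50 from dose-response.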
`CN(C)C(=O)c1cccc(-c2cnc3sc(NCCc4ccc(S(N)(=O)=O)cc4)nn23)c1` [Compound 252, N,N-dimethyl-3-[2-[2-(4-sulfamoylphenyl)ethylamino]imidazo[2,1-a] [1,3,4]thiadiazol-5-yl]benzamide] showed an IC50 of 909 nM. In the case of `CN(C)C(=O)c1cccc(-c2cnc3sc(NC4CCC(O)CC4)nn23)c1` (centres unmarked) [Compound 253, 3-[2-[(4-hydroxycyclo-hexyl)amino]imidazo[2,1-b] [1,3,4]thiadiazol-5-yl]-N,N-dimethyl-benzamide], the IC50 is reported as 533 nM. `CC(=O)c1cccc(-c2cnc3sc(NC4CCC(O)CC4)nn23)c1` (centres unmarked) [Compound 254, 1-[3-[2-[(4-hydroxycyclo-hexyl)amino]imidazo[2,1-a] [1,3,4]thiadiazol-5-yl]phenyl] ethanone] was tested, and the IC50 was 487 nM. `COc1ccc(-c2cnn3c(N)c(-c4cccc(Cl)c4)cnc23)cc1OC` [Compound 255, 6-(3-chlorophenyl)-3-(3,4-dimethoxyphenyl) pyrazolo[1,5-a]pyrimidin-7-amine] was tested, and the IC50 was 804 nM. `CC(=O)Nc1cccc(-c2cnc3sc(NCc4ccco4)nn23)c1` [Compound 256, N-[3-[2-(2-furylmethylamino)imidazo[2,1-a] [1,3,4]thiadiazol-5-yl]phenyl] acetamide] gave an IC50 of 4570 nM. Compound `CN(C)C(=O)c1cccc(-c2cnc3sc(NCC4CC4)nn23)c1` [Compound 257, 3-[2-(cyclopropyl-methylamino)imidazo[2,1-d] [1,3,4]thiadiazol-5-yl]-N,N-dimethyl-benzamide] has an IC50 of 977 nM. `CC(C)CNc1nn2c(-c3cccc(C(=O)N(C)C)c3)cnc2s1` [Compound 258, 3-[2-(isobutylamino)imidazo[2,1-d] [1,3,4]thiadiazol-5-yl]-N,N-dimethyl-benzamide] was tested, and the IC50 was 283 nM. In the case of `CN(C)C(=O)c1cccc(-c2cnc3sc(NCc4ccc(F)cc4)nn23)c1` [Compound 259, 3-[2-[(4-fluorophenyl)methylamino]imidazo[2,1-b] [1,3,4]thiadiazol-5-yl]-N,N-dimethyl-benzamide], the IC50 is reported as 2760 nM. For `CC(=O)Nc1cccc(-c2cnc3sc(NCc4cccs4)nn23)c1` [Compound 260, N-[3-[2-(2-thienylmethyl-amino)imidazo [2,1-b] [1,3,4]thiadiazol-5-yl]phenyl] acetamide], the IC50 was 3930 nM. Compound `Cn1cc(-c2cnc3sc(NCCc4ccc(S(N)(=O)=O)cc4)nn23)cn1` [Compound 261, 4-[2-[[5-(1-methylpyrazol-4-yl)imidazo[2,1-d][1,3,4]thiadiazol-2-yl]amino]ethyl] benzene-sulfonamide] has an IC50 of 2260 nM. In the case of `CN(C)c1cccc(-c2cnc3sc(NC4CCC(O)CC4)nn23)c1` (centres unmarked) [Compound 262, 4-[[5-[3-(dimethylamino)phenyl]imidazo [2,1-a] [1,3,4]thiadiazol-2-yl]amino] cyclohexanol], the IC50 is reported as 5790 nM. For `CC(C)CNc1nn2c(-c3cccc(NS(C)(=O)=O)c3)cnc2s1` [Compound 263, N-[3-[2-(isobutylamino)imidazo[2,1-b] [1,3,4]thiadiazol-5-yl]phenyl] methane-sulfonamide], the IC50 was 7070 nM. `NC(=O)c1cccc(-c2cnc3sc(NCCCO)nn23)c1` [Compound 264, 3-[2-(3-hydroxypropyl-amino)imidazo [2,1-b][1,3,4]thiadiazol-5-yl]benzamide] gave an IC50 of 2880 nM. `Oc1ccc(-c2cnc3sc(NC4CCC(O)CC4)nn23)cc1` (centres unmarked) [Compound 265, 4-[2-[(4-hydroxycyclo-hexyl)amino]imidazo[2,1-b] [1,3,4]thiadiazol-5-yl]phenol] was tested, and the IC50 was 3800 nM. Work on `NC(=O)c1cccc(-c2cnc3sc(NCc4ccco4)nn23)c1` [Compound 266, 3-[2-(2-furylmethyl-amino)imidazo[2,1-b] [1,3,4]thiadiazol-5-yl]benzamide] yielded an IC50 of 1230 nM. In the case of `COc1ccc(-c2cnc3sc(NCCc4ccc(S(N)(=O)=O)cc4)nn23)cn1` [Compound 267, 4-[2-[[5-(6-methoxy-3-pyridyl)imidazo [2,1-b] [1,3,4]thiadiazol-2-yl]amino]ethyl]benzene-sulfonamide], the IC50 is reported as 2610 nM. Compound `CN(C)C(=O)c1cccc(-c2cnc3sc(NCC4CCOCC4)nn23)c1` [Compound 268, N,N-dimethyl-3-[2-(tetrahydro-pyran-4-ylmethylamino)imidazo[2,1-b] [1,3,4]thiadiazol-5-yl]benzamide] has an IC50 of 2730 nM. Work on `COc1cncc(-c2cnc3sc(NCC(C)C)nn23)c1` [Compound 270, N-isobutyl-5-(5-methoxy-3-pyridyl)imidazo [2,1-b] [1,3,4]thiadiazol-2-amine] yielded an IC50 of 5170 nM. `COc1cncc(-c2cnc3sc(NCc4ccc5c(c4)OCO5)nn23)c1` [Compound 271, N-(1,3-benzodioxol-5-ylmethyl)-5-(5-methoxy-3-pyridyl)imidazo [2,1-b] [1,3,4]thiadiazol-2-amine] gave an IC50 of 448 nM. Work on `COc1cc(-c2cnc3ccc(-c4ccc(NC(C)=O)cc4)nn23)ccc1O` [Compound 272, N-[4-[3-(4-hydroxy-3-methoxy-phenyl)imidazo [1,2-b]pyridazin-6-yl]phenyl] acetamide] yielded an IC50 of 169 nM. With `CC(=O)Nc1cccc(-c2cnc3ccc(-c4ccc5c(c4)OCO5)nn23)c1` [Compound 273, N-[3-[6-(1,3-benzodioxol-5-yl)imidazo[1,2-b]pyridazin-3-yl]phenyl] acetamide] the IC50 was 1170 nM. In the case of `CC(=O)Nc1cccc(-c2ccc3ncc(-c4ccc5c(c4)OCO5)n3n2)c1` [Compound 274, N-[3-[3-(1,3-benzodioxol-5-yl)imidazo[1,2-b]pyridazin-6-yl]phenyl] acetamide], the IC50 is reported as 1110 nM. `CC(=O)Nc1cc(-c2ccc(C(=O)N3CCOCC3)cc2)cn2c(-c3cccc(C(C)=O)c3)cnc12` [Compound 275] showed an IC50 of 2030 nM. `CC(=O)Nc1cccc(-c2cnc3ccc(-c4cccc(OC(F)(F)F)c4)nn23)c1` [Compound 276, N-[3-[6-[3-(trifluoromethoxy)phenyl]imidazo [1,2-b]pyridazin-3-yl]phenyl] acetamide] showed an IC50 of 1500 nM. Compound `COc1ccc(-c2ccc3ncc(-c4cccc(C(C)=O)c4)n3n2)cc1OC` [Compound 277, 1-[3-[6-(3,4-dimethoxyphenyl)imidazo[1,2-b]pyridazin-3-yl]phenyl] ethanone] has an IC50 of 653 nM. Compound `CC(=O)Nc1cccc(-c2cnc3ccc(-c4ccc(S(C)(=O)=O)cc4)nn23)c1` [Compound 278, N-[3-[6-(4-methylsulfonyl-phenyl)imidazo [1,2-b]pyridazin-3-yl]phenyl] acetamide] has an IC50 of 1080 nM. Compound `CC(=O)Nc1cccc(-c2ccc3ncc(-c4cccc(NC(C)=O)c4)n3n2)c1` [Compound 279, N-[3-[3-(3-acetamidophenyl)imidazo[1,2-b]pyridazin-6-yl]phenyl] acetamide] has an IC50 of 553 nM. `COc1ccc(CNc2nn3c(-c4cccc(C(=O)N(C)C)c4)cnc3s2)cc1` [Compound 280, 3-[2-[(4-methoxyphenyl)methylamino]imidazo[2,1-b] [1,3,4]thiadiazol-5-yl]-N,N-dimethyl-benzamide] showed an IC50 of 2330 nM. `CC(=O)Nc1cccc(-c2ccc3ncc(-c4cccc(C(C)=O)c4)n3n2)c1` [Compound 281, N-[3-[3-(3-acetylphenyl)imidazo[1,2-b]pyridazin-6-yl]phenyl] acetamide] showed an IC50 of 620 nM. `CC(=O)Nc1cccc(-c2cnc3ccc(-c4ccc(C(N)=O)cc4)nn23)c1` [Compound 282, 4-[3-(3-acetamidophenyl)imidazo[1,2-b]pyridazin-6-yl]benzamide] gave an IC50 of 222 nM. For `CC(=O)Nc1ccc(-c2ccc3ncc(-c4cccc(O)c4)n3n2)cc1` [Compound 283, N-[4-[3-(3-hydroxyphenyl)imidazo[1,2-b]pyridazin-6-yl]phenyl] acetamide], the IC50 was 519 nM. `COc1cc(-c2cnc3sc(NCCc4ccncc4)nn23)cc(OC)c1OC` [Compound 284, N-[2-(4-pyridyl)ethyl]-5-(3,4,5-trimethoxy-phenyl)imidazo [2,1-b][1,3,4] thiadiazol-2-amine] was tested, and the IC50 was 1770 nM. `CN(C)C(=O)c1cccc(-c2cnc3sc(NCc4ccccc4)nn23)c1` [Compound 286, 3-[2-(benzylamino)imidazo[2,1-d] [1,3,4]thiadiazol-5-yl]-N,N-dimethyl-benzamide] gave an IC50 of 1510 nM. In the case of `COc1ccc(-c2cnc3sc(NCc4ccncc4)nn23)cn1` [Compound 287, 5-(6-methoxy-3-pyridyl)-N-(4-pyridylmethyl) imidazo[2,1-b] [1,3,4]thiadiazol-2-amine], the IC50 is reported as 2590 nM. Work on `CC(=O)Nc1cccc(-c2ccc3ncc(-c4cccc(CO)c4)n3n2)c1` [Compound 288, N-[3-[3-[3-(hydroxymethyl)phenyl]imidazo [1,2-b]pyridazin-6-yl]phenyl] acetamide] yielded an IC50 of 1640 nM. For `CN(C)C(=O)c1cccc(-c2cnc3sc(NCc4ccco4)nn23)c1` [Compound 289, 3-[2-(2-furylmethylamino)imidazo[2,1-p] [1,3,4]thiadiazol-5-yl]-N,N-dimethyl-benzamide], the IC50 was 2460 nM. Compound `CC(=O)Nc1cccc(-c2cnc3ccc(-c4ccc(N(C)C)cc4)nn23)c1` [Compound 290, N-[3-[6-(4-dimethylamino-phenyl)imidazo [1,2-a]pyridazin-3-yl]phenyl] acetamide] has an IC50 of 1100 nM. `CC(=O)c1cccc(-c2cnc3c(NC=O)cc(-c4ccc(C(=O)N5CCOCC5)cc4)cn23)c1` [Compound 291, N-[3-(3-acetylphenyl)-6-[4-(morpholine-4-carbonyl)phenyl]imidazo[1,2-a]pyridin-8-yl]formamide] was tested, and the IC50 was 2990 nM. `COc1cc(-c2cnc3ccc(-c4cccc(NC(C)=O)c4)nn23)ccc1O` [Compound 292, N-[3-[3-(4-hydroxy-3-methoxy-phenyl)imidazo [1,2-b]pyridazin-6-yl]phenyl] acetamide] was tested, and the IC50 was 102 nM. In the case of `CS(=O)(=O)Nc1cccc(-c2ccc3ncc(-c4ccc(CO)cc4)n3n2)c1` [Compound 293, N-[3-[3-[4-(hydroxymethyl)phenyl]imidazo [1,2-b]pyridazin-6-yl]phenyl] methane-sulfonamide], the IC50 is reported as 830 nM. `CC(=O)c1cccc(-c2cnc3ccc(-c4cccc(O)c4)nn23)c1` [Compound 294, 1-[3-[6-(3-hydroxyphenyl)imidazo[1,2-a]pyridazin-3-yl]phenyl] ethanone] showed an IC50 of 994 nM.
